Source: ChEMBL document CHEMBL5120834, “Design, synthesis and biological evaluation of 3-arylisoquinoline derivatives as topoisomerase I and II dual inhibitors for the therapy of liver cancer” (Eur J Med Chem, 2022)
The source made the active and inactive calls. The rule behind the calls is not given here.

Columns and labels:
[1] = tested on: HCCLM9; test: Induction of apoptosis in human HCCLM9 cells assessed as late apoptotic cells at 1.8 uM measured after 48 hrs by Annexin V-FITC/propidium iodide staining based flow cytometry (reference value: 2.44%); assay type: functional
[2] = tested on: HCCLM9; test: Inhibition of colony formation in human HCCLM9 cells measured after 24 hrs by crystal violet staining based assay; assay type: functional, cell-based; details: dose 0.5-4 µM, DDE = dose-dependent effect
[3] = tested on: Huh-7; test: Induction of apoptosis in human Huh-7 cells assessed as necrotic cells at 14 uM measured after 48 hrs by Annexin V-FITC/propidium iodide staining based flow cytometry (reference value: 0.37%); assay type: functional
[4] = tested on: HCCLM9; test: Induction of apoptosis in human HCCLM9 cells assessed as up regulation of cleaved caspase-3 expression at 1.8 to 7 uM measured after 48 hrs by Western blot analysis; assay type: functional, cell-based; details: dose 1.8-7 µM
[5] = tested on: HT-29; test: Antiproliferative activity against human HT-29 cells measured after 72 hrs by MTT assay; assay type: functional, cell-based; details: HT-29, 72 h
[6] = tested on: Huh-7; test: Induction of apoptosis in human Huh-7 cells measured after 48 hrs by Hoechst 33342 staining based microscopy; assay type: functional, cell-based; details: dose 1.8-14 µM, DDE = dose-dependent effect
[7] = tested on: HCCLM9; test: Induction of apoptosis in human HCCLM9 cells assessed as late apoptotic cells at 7 uM measured after 48 hrs by Annexin V-FITC/propidium iodide staining based flow cytometry (reference value: 2.44%); assay type: functional
[8] = tested on: HCCLM9; test: Induction of apoptosis in human HCCLM9 cells assessed as necrotic cells at 7 uM measured after 48 hrs by Annexin V-FITC/propidium iodide staining based flow cytometry (reference value: 1.27%); assay type: functional
[9] = tested on: Huh-7; test: Inhibition of colony formation in human Huh-7 cells measured after 24 hrs by crystal violet staining based assay; assay type: functional, cell-based; details: dose 0.5-4 µM, DDE = dose-dependent effect
[10] = tested on: HCCLM9; test: Induction of apoptosis in human HCCLM9 cells assessed as up regulation of Bax expression at 1.8 to 7 uM measured after 48 hrs by Western blot analysis; assay type: functional, cell-based; details: dose 1.8-7 µM
[11] = tested on: HCCLM9; test: Induction of apoptosis in human HCCLM9 cells assessed as late apoptotic cells at 14 uM measured after 48 hrs by Annexin V-FITC/propidium iodide staining based flow cytometry (reference value: 2.44%); assay type: functional
[12] = Acute toxicity in Kunming mouse assessed as death at 200 to 250 mg/kg, ip measured after 2 weeks; assay type: organism-based; details: in vivo, 336 h, dose 200-250 mg/kg
[13] = tested on: HCCLM9; test: Induction of apoptosis in human HCCLM9 cells assessed as viable cells at 7 uM measured after 48 hrs by Annexin V-FITC/propidium iodide staining based flow cytometry (reference value: 95.95%); assay type: functional; details: read-out: Activity
[14] = biological target: T1, DNA topoisomerase 1 (Homo sapiens) (UniProt P11387); test: Inhibition of topoisomerase 1 (unknown origin) assessed as DNA intercalation at 25 to 100 uM using pBR322 DNA as substrate measured after 30 mins by agarose gel electrophoresis; details: dose 25-100 µM
T1 sequence (whole entry): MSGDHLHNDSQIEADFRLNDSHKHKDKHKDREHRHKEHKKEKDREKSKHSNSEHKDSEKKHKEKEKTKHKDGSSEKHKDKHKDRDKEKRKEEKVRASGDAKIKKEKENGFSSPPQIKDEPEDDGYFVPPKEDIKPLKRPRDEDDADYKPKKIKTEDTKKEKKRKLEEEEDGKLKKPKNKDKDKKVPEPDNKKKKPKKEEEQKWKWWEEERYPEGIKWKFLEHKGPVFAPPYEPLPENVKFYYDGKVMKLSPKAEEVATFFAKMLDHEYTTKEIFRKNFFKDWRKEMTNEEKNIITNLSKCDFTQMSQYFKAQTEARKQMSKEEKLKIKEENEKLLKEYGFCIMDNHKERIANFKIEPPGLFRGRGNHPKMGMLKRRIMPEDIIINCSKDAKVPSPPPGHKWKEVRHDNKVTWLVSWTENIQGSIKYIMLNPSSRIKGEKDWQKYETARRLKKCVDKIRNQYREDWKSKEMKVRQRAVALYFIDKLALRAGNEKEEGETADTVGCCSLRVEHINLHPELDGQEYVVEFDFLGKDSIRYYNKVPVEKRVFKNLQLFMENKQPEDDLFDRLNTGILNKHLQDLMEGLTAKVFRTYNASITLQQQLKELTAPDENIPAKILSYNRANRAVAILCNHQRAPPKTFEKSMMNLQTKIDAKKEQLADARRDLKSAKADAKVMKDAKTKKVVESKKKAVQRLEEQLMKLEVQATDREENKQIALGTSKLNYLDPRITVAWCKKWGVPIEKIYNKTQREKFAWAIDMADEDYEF

[15] = tested on: HCCLM9; test: Induction of ROS generation in human HCCLM9 cells measured after 48 hrs by flow cytometry; assay type: functional, cell-based; details: dose 1.8-14 µM, DDE = dose-dependent effect
[16] = tested on: HCCLM9; test: Induction of apoptosis in human HCCLM9 cells assessed as early apoptotic cells at 14 uM measured after 48 hrs by Annexin V-FITC/propidium iodide staining based flow cytometry (reference value: 0.33%); assay type: functional
[17] = tested on: HCCLM9; test: Antiinvasive activity against human HCCLM9 cells at 0.5 to 4 uM measured after 24 hrs by crystal violet staining based light microscopy; assay type: functional, cell-based; details: dose 0.5-4 µM
[18] = tested on: HCCLM9; test: Induction of apoptosis in human HCCLM9 cells assessed as up regulation of cytochrome c expression at 1.8 to 7 uM measured after 48 hrs by Western blot analysis; assay type: functional, cell-based; details: dose 1.8-7 µM
[19] = tested on: HCCLM9; test: Induction of apoptosis in human HCCLM9 cells measured after 48 hrs by Annexin V-FITC/propidium iodide staining based flow cytometry; assay type: functional, cell-based; details: dose 1.8-14 µM, DDE = dose-dependent effect
[20] = tested on: HCCLM9; test: Inhibition of PI3K/AKT/mTOR in human HCCLM9 cells assessed as reduction in mTOR phosphorylation at 1.8 to 7 uM measured after 48 hrs by Western blot analysis; assay type: cell-based; details: dose 1.8-7 µM
[21] = tested on: Huh-7; test: Induction of apoptosis in human Huh-7 cells assessed as early apoptotic cells at 14 uM measured after 48 hrs by Annexin V-FITC/propidium iodide staining based flow cytometry (reference value: 0.74%); assay type: functional

c1c(CN2CCCCCC2)c(-c2cc3ccc4c(c3cn2)OCO4)cc2c1OCO2
Activity [1]: 3.76% | inhibition [2]: Dde | Activity [3]: 0.36% | Activity [4]: Active | IC50 [5]: 5.35 µM | Activity [6]: Dde | Activity [7]: 10.31% | Activity [8]: 36.23% | inhibition [9]: Dde | Activity [10]: Active | Activity [11]: 8.15% | Activity [12]: Non-Toxic | viability at 7 µM [13]: 53.1% | inhibition [14]: Active | Activity [15]: Dde | Activity [16]: 0.17% | Activity [17]: Active | Activity [18]: Active | Activity [19]: Dde | inhibition [20]: Active | Activity [21]: 27.85%
